Patent US8461328B2, “Tricyclic heterocyclic compounds, compositions and methods of use thereof” (Genentech, Inc., priority 2010, dated 2013)

Tests used:
Format in all cases: biochemical
JAK1 = molecular target: T1, JAK1 (Homo sapiens, UniProt P23458); assay: JAK1 inhibition (Table 4); details: read-out: JAK1 Ki
T1 construct: made in house; host or cells: SF9 insect cells (baculovirus)

JAK2 = molecular target: T2, JAK2 (Homo sapiens, UniProt O60674); assay: JAK2 inhibition (Table 4); details: read-out: JAK2 Ki
T2 construct: made in house; host or cells: SF9 insect cells (baculovirus)
T2 sequence (O60674 812-1132): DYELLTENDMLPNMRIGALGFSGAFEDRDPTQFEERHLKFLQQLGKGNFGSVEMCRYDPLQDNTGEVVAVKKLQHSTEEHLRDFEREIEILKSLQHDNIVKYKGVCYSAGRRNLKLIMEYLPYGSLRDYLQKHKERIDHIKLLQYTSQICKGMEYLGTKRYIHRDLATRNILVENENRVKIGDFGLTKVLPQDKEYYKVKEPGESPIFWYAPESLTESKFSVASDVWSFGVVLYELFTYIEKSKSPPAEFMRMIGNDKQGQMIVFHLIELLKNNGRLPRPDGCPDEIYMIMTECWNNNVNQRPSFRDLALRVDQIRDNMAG

JAK3 = molecular target: T3, JAK3 (Homo sapiens, UniProt P52333); assay: JAK3 inhibition (Table 4); details: read-out: JAK3 Ki
T3 construct: made in house; host or cells: SF9 insect cells (baculovirus)
T3 sequence (P52333 783-1124): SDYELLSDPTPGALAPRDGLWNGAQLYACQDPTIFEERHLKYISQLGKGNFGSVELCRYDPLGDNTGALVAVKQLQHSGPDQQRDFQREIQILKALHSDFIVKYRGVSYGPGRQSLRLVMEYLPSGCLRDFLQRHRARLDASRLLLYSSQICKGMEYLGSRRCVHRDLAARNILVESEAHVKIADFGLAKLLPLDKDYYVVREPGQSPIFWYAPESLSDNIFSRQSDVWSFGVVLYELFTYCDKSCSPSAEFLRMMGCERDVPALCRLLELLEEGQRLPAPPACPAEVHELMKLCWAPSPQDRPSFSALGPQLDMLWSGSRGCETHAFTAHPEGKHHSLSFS

TYK2 = molecular target: T4, TYK2 (Homo sapiens, UniProt P29597); assay: TYK2 inhibition (Table 4)
T4 construct: made in house; host or cells: SF9 insect cells (baculovirus)
T4 sequence (P29597 873-1187): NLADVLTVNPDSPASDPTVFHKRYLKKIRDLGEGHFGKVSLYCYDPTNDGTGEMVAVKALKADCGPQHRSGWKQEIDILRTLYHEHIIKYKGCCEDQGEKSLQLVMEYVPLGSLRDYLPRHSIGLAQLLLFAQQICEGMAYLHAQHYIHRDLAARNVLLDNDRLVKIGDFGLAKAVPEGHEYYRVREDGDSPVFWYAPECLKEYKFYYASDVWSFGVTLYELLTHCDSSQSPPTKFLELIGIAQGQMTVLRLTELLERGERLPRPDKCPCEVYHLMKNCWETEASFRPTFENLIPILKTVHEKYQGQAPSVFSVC

T1 sequence (P23458 852-1154): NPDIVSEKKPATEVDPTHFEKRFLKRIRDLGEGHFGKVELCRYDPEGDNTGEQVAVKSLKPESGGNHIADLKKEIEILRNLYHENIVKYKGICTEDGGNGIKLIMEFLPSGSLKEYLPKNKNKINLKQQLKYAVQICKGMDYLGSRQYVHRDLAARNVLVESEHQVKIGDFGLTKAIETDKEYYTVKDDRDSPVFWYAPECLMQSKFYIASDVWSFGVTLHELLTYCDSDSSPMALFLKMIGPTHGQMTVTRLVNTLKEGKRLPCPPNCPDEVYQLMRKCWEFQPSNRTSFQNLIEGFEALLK

SMILES	Ki (JAK1)	Ki (JAK2)	Ki (JAK3)	Ki (TYK2)
CNc1nc2cnc3[nH]ccc3c2n1C1CCN(CC(F)(F)F)CC1 [Example 658, Methyl-{1-[1-(2,2,2-trifluoro-ethyl)-piperidin-4-yl]-1,6-dihydro-1,2,3,5,6-tetraaza-as-indacen-2-yl}-amine]	3.51 nM	13.6 nM	34.2 nM	67.4 nM
Fc1cccc(CN2CCC(n3cnc4cnc5[nH]ccc5c43)CC2)c1 [Example 67, 1-[1-(3-Fluoro-benzyl)-piperidin-4-yl]-1,6-dihydro-1,3,5,6-tetraaza-as-indacene]	0.75 nM	1.16 nM	9.48 nM	23.6 nM
O=C1CCCN1CCc1nc2cnc3[nH]ccc3c2n1C1CCCCC1 [Example 801, 1-[2-(1-Cyclohexyl-1,6-dihydro-1,3,5,6-tetraaza-as-indacen-2-yl)-ethyl]-pyrrolidin-2-one]	7.74 nM	51.5 nM	76.8 nM	64.9 nM
NC1CCCC(n2cnc3cnc4[nH]ccc4c32)C1 (single isomer, unassigned) [Example 368, 3-(6H-1,3,5,6-Tetraaza-as-indacen-1-yl)-cyclohexylamine]	27.8 nM	19.3 nM	419 nM	130 nM
OCc1nc2cnc3[nH]ccc3c2n1C1CCNCC1 [Example 236, (1-Piperidin-4-yl-1,6-dihydro-1,3,5,6-tetraaza-as-indacen-2-yl)-methanol]	7.66 nM	126 nM	128 nM	61.5 nM
OC1CCCC(n2nnc3cnc4[nH]ccc4c32)C1 (single isomer, unassigned) [Example 553, 3-(6H-1,2,3,5,6-Pentaaza-as-indacen-1-yl)-cyclohexanol]	8.59 nM	20.4 nM	42.5 nM	33.5 nM
OC1(C2CC2)CCC(n2cnc3cnc4[nH]ccc4c32)CC1 (stereo not drawn) [Example 995, Trans-1-Cyclopropyl-4-(6H-1,3,5,6-tetraaza-as-indacen-1-yl)-cyclohexanol]	6.41 nM	13.7 nM	74.1 nM	32.1 nM
CS(=O)(=O)c1ccc(S(=O)(=O)N2CCC(n3cnc4cnc5[nH]ccc5c43)CC2)cc1 [Example 450, 1-(1-(4-(methylsulfonyl)phenylsulfonyl)piperidin-4-yl)-1,6-dihydroimidazo[4,5-d]pyrrolo[2,3-b]pyridine]	3.06 nM	10.2 nM	659 nM	32.8 nM
OCCN1CCC(n2cnc3cnc4[nH]ccc4c32)CC1 [Example 338, 2-[4-(6H-1,3,5,6-Tetraaza-as-indacen-1-yl)-piperidin-1-yl]-ethanol]	21.1 nM	50.1 nM	288 nM	158 nM
C[C@@H](O)c1nc2cnc3[nH]ccc3c2n1C1CCC(C#N)CC1 (stereo partly drawn) [Example 776, 4-[2-((R)-1-Hydroxy-ethyl)-6H-1,3,5,6-tetraaza-as-indacen-1-yl]-cyclohexanecarbonitrile]	0.99 nM	10.4 nM	1.88 nM	0.73 nM
CC(C)COCc1nc2cnc3[nH]ccc3c2n1C1CCN(CCC#N)CC1 [Example 407, 3-[4-(2-Isobutoxymethyl-6H-1,3,5,6-tetraaza-as-indacen-1-yl)-piperidin-1-yl]-propionitrile]	81.2 nM	122 nM	170 nM	607 nM
CCCS(=O)(=O)N1CCC(n2c(Cc3conc3C)nc3cnc4[nH]ccc4c32)CC1 [Example 381, 2-(3-Methyl-isoxazol-4-ylmethyl)-1-[1-(propane-1-sulfonyl)-piperidin-4-yl]-1,6-dihydro-1,3,5,6-tetraaza-as-indacene]	87.1 nM	1270 nM	1840 nM	1990 nM
N#Cc1cccc(CN2CC[C@@H](n3cnc4cnc5[nH]ccc5c43)C2)c1 [Example 436, 3-[(R)-3-(6H-1,3,5,6-Tetraaza-as-indacen-1-yl)-pyrrolidin-1-ylmethyl]-benzonitrile]	8.9 nM	12.5 nM	210 nM	97.7 nM
C[C@@H](O)c1nc2cnc3[nH]ccc3c2n1[C@H]1CC[C@H](N(C)CCC#N)CC1 [Example 616, Trans 3-({4-[2-((R)-1-hydroxy-ethyl)-6H-1,2,3,5,6-tetraaza-as-indacen-1-yl]-cyclohexyl}-methyl-amino)-propionitrile]	4.49 nM	20 nM	84.3 nM	12.1 nM
O=C(Cc1nc2cnc3[nH]ccc3c2n1C1CCCOC1)NCC(F)F (racemic) [Example 973, N-(2,2-Difluoro-ethyl)-2-[1-(tetrahydro-pyran-3-yl)-1,6-dihydro-1,3,5,6-tetraaza-as-indacen-2-yl]-acetamide]	23 nM	152 nM	130 nM	215 nM
N#CCCN1CCC(n2nnc3cnc4[nH]ccc4c32)CC1 [Example 232, 3-[4-(6H-1,2,3,5,6-Pentaaza-as-indacen-1-yl)-piperidin-1-yl]-propionitrile]	2.03 nM	3.35 nM	53.4 nM	19.3 nM
N#CCC(=O)N1CCCC(n2cnc3cnc4[nH]ccc4c32)CC1 (racemic) [Example 485, 3-Oxo-3-[4-(6H-1,3,5,6-tetraaza-as-indacen-1-yl)-azepan-1-yl]-propionitrile]	1.07 nM	1.91 nM	19 nM	6.6 nM
CC(C)CNC(=O)Cc1nc2cnc3[nH]ccc3c2n1C1CCCOC1 (racemic) [Example 966, N-Isobutyl-2-[1-(tetrahydro-pyran-3-yl)-1,6-dihydro-1,3,5,6-tetraaza-as-indacen-2-yl]-acetamide]	38 nM	256 nM	196 nM	478 nM
OC1(C2CC2)CCC(n2cnc3cnc4[nH]ccc4c32)CC1 (stereo not drawn) [Example 996, Cis-1-Cyclopropyl-4-(6H-1,3,5,6-tetraaza-as-indacen-1-yl)-cyclohexanol]	2.01 nM	3.85 nM	50.8 nM	9.23 nM
O[C@@H](c1nc2cnc3[nH]ccc3c2n1C1CCCCC1)C(F)(F)F [Example 878, (S)-1-(1-Cyclohexyl-1,6-dihydro-1,3,5,6-tetraaza-as-indacen-2-yl)-2,2,2-trifluoro-ethanol]	1.8 nM	43.7 nM	13.6 nM	11.8 nM
CC(O)c1nc2cnc3[nH]ccc3c2n1CC1CCCO1 (centres unmarked) [Example 700, 1-[1-(Tetrahydro-furan-2-ylmethyl)-1,6-dihydro-1,2,3,5,6-tetraaza-as-indacen-2-yl]-ethanol]	478 nM	617 nM	546 nM	1430 nM
O=S1(=O)CCCN1CCc1nc2cnc3[nH]ccc3c2n1C1CCCCC1 [Example 922, 1-Cyclohyl-2-[2-(1,1-dioxo-1-isothiazolidin-2-yl)-ethyl]-1,6-dihydro-1,3,5,6-tetraaza-as-indacene]	13.3 nM	49.8 nM	51.6 nM	146 nM
C[C@@H](O)c1nc2cnc3[nH]ccc3c2n1N1CCCCC1 [Example 882, (R)-1-(1-Piperidin-1-yl-1,6-dihydro-1,3,5,6-tetraaza-as-indacen-2-yl)-ethanol]	3.56 nM	51.6 nM	72.6 nM	10.6 nM
O=C(NCCc1nc2cnc3[nH]ccc3c2n1C1CCCCC1)C1CC1(F)F (racemic) [Example 515, 2,2-Difluoro-cyclopropanecarboxylic acid [2-(1-cyclohexyl-1,6-dihydro-1,3,5,6-tetraaza-as-indacen-2-yl)-ethyl]-amide]	2.41 nM	43.5 nM	120 nM	25.2 nM
OCc1nc2cnc3[nH]ccc3c2n1C1CCN(Cc2ccccc2)CC1(F)F (racemic) [Example 947, [1-(1-Benzyl-3,3-difluoro-piperidin-4-yl)-1,6-dihydro-1,3,5,6-tetraaza-as-indacen-2-yl]-methanol]	0.42 nM	1.29 nM	2.14 nM	5.63 nM
C[C@@H](O)c1nc2cnc3[nH]ccc3c2n1C1(C)CCN(S(C)(=O)=O)CC1 [Example 585, (R)-1-[1-(1-Methanesulfonyl-4-methyl-piperidinyl)-1,6-dihydro-1,2,3,5,6-tetraaza-as-indacen-2-yl]-ethanol]	9.46 nM	63.4 nM	88.3 nM	67.3 nM
N#CC1(C(=O)N2CCC[C@@H](n3cnc4cnc5[nH]ccc5c43)C2)CCC1 [Example 316, 1-[(R)-3-(6H-1,3,5,6-Tetraaza-as-indacen-1-yl)-piperidine-carbonyl]-cyclobutanecarbonitrile]	2.77 nM	3.2 nM	9.24 nM	17.7 nM
CC(=O)N1CCN(C(=O)Cc2nc3cnc4[nH]ccc4c3n2C2CCCOC2)CC1 (racemic) [Example 977, 1-(4-Acetyl-piperazin-1-yl)-2-[1-(tetrahydro-pyran-3-yl)-1,6-dihydro-1,3,5,6-tetraaza-as-indacen-2-yl]-ethanone]	28.2 nM	363 nM	195 nM	210 nM
CC(O)c1nc2cnc3[nH]ccc3c2n1C1CC2CCC1O2 (stereo not drawn) [Example 848, endo-1-[1-(7-Oxa-bicyclo[2.2.1]hept-2-yl)-1,6-dihydro-1,3,5,6-tetraaza-as-indacen-2-yl]-ethanol]	120 nM	156 nM	71.9 nM	216 nM
